We go through one molecule from patent publication US20250163056A1, “NONMUSCLE MYOSIN II INHIBITORS” (The University of Florida Research Foundation, Inc., priority 2018, published 2025).

Some results are limits rather than exact numbers.

One data set has as its target Rabbit skeletal myosin. The experiment in a line: Skeletal muscle myosin II actin-activated ATPase assay. Type of data set: biochemical. The conditions noted are these: 20 nM skeletal muscle myosin II; read-out: SKMMII KI. Summed up: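 NADH-coupled (PK/LDH) actin-activated ATPase at 25 °C with 20 nM rabbit skeletal myosin II, 10 μM F-actin, 1 mM ATP, 1 mM PEP, 220 μM NADH in MOPS pH 7.0, MgCl2, EGTA, BSA, DTT, 0.5% DMSO. NADH fluorescence followed 30 min; inhibitory constants from 16-point triplicate curves (top 50 uM), quadratic one-to-one fit.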

A short description of data set [1]: Brain and plasma distribution after IP dosing. The conditions noted are these: 10 mg/kg. The format is in vivo, mice. As for the experimental part:
FIG. 4: Brain and plasma distribution of blebbistatin after IP dosing at 10 mg/kg in mice.
(§1) The potential for systemic NMII inhibition to selectively target METH-associated memories in the way that intra-AMY administration does was also investigated. […] IP administered Blebbistatin also disrupts reconsolidation of memories for cocaine, nicotine and mephedrone, a result with additional potential therapeutic relevance in treating relapse^75-76. In addition, the BLC spine density increase that accompanies a METH-associated memory is reversed by Blebbistatin (FIG. 3C), without altering the spine density increase associated with a fear memory (FIG. 3D)^65, 74.

For another data set, the system named is METH-associated memory. The data set can be described thus: METH-associated memory, conditioned place preference (CPP) assay. The conditions noted are these: single intra-BLC or IP administration (IP 10 mg/kg). The format is in vivo, mice and rats.
From the text: In 2013, we published the finding that depolymerization of actin in the AMY disrupts the storage of METH-associated memories in a selective, retrieval-independent manner^65. Because of the limited clinical potential of actin depolymerizing agents, we turned to NMII, a molecular motor we previously found to be a key regulator of memory, synaptic plasticity (long-term potentiation [LTP]) and actin polymerization in dendritic spines^59 63. Through a series of experiments in a recently published studies, we detailed NMII's potential as a therapeutic target for SUD relapse^52,74-76.
as §1

The subject of the next data set is METH seeking. The data set can be described thus: Context-induced reinstatement of METH seeking (animal model of relapse). Type of data set: in vivo. The settings on record: single intra-BLC administration.
Another data set deals with fear memory. The data set can be described thus: Auditory fear memory after systemic NMII inhibition. The format is in vivo. The settings on record: IP administered.
From the text: (§2) FIG. 3(A,B,C,D): Systemic NMII inhibition selectively targets the storage of (A) a METH-associated memory, (B) having no effect on an auditory fear memory. Similarly, spine density associated with a METH-associated memory (C), but not a fear memory (D), is reduced.
as §1

The test system of another data set is BLC spine density. The experiment in a line: BLC spine density associated with memory. The settings on record: in vivo.
From the text: as §2, §1

For data set [2], the system named is polydrug-associated memories. The data set can be described thus: Polydrug-associated memory CPP (METH/NIC, METH/MOR). Type of data set: in vivo, mice. The conditions noted are these: Test 1 and Test 2, drugs on alternating days. As for the experimental part:
FIG. 6(A,B,C,D,E): Nonmuscle myosin II inhibition disrupts polydrug-associated memories when the drugs are administered on alternating days (A) Schematic of the experimental design. […] METH/NIC: Veh n=10; METH/NIC: Blebb n=10; METH/MOR: Veh n=19; METH/MOR: Blebb n=19; * p<0.05, ** p<0.01, *** p<0.001. Error bars represent±s.e.m.
The vast majority of individuals with substance use disorder are polydrug users. For example, most METH users also smoke. We recently made an unexpected discovery with direct relevance to polydrug use^76. When animals are treated with both METH and a drug that is impervious to Blebb on its own (nicotine or morphine), either concurrently or on alternating days, the nicotine and morphine memories become susceptible to immediate disruption by Blebb, akin to the effect on METH alone memories (FIG. 6). Thus, memories for previously impervious drugs of abuse become susceptible to NMII inhibition when METH associations are also formed. Importantly, this occurs when associative training is performed with METH and the other drug of abuse being administered simultaneously or separately, on different days. We are currently expanding our analysis to other commonly abused drugs, including other opioids, such as heroin, alcohol, cocaine and synthetic cathinones.

The subject of another data set is various myosin IIs. The conditions noted are these: reported in the literature; read-out: biochemical IC50 values in various myosin IIs; cited from earlier work.
Data set [3] can be described thus: Photostability, percentage remaining undegraded under illumination or in the dark.

In the case of `Cc1ccc2c(c1)C(=O)[C@]1(O)CCN(c3ccccc3)C1=N2` [Blebbistatin, reference compound], at Rabbit skeletal myosin, the inhibition constant (Ki) came to 0.36 µM. In [1], this molecule came in with a brain levels of 90 µM. In addition, the METH-associated memory result in the data set with METH-associated memory (listed as Blebb) is reported as “disrupt a METH-associated memory”. Moreover, in the data set on METH-associated memory (listed as blebbistatin), the METH-associated memory entry is listed as “disrupted”. In the data set with METH seeking, the “context-induced reinstatement of METH seeking” value was “prevents context-induced reinstatement of METH seeking”. For the same molecule, the “effect on a fear memory” value in the data set with fear memory is reported as “no similarly immediate effect on a fear memory”. Further, in the data set on BLC spine density, the “BLC spine density increase accompanying a METH-associated memory” value is reported as “reversed”. In data set [2], the “METH/MOR CPP” value was “did not demonstrate a significant METH/MOR CPP during either test” and the “METH/NIC CPP” value is on record as “did not demonstrate a significant METH/NIC CPP during either test”. For the same molecule, the IC50 in the data set on various myosin IIs was 1.8 to 9 µM. Besides, the “Photostability 4 hours” value in data set [3] (percentage remaining undegraded after 4 hours illumination) is reported as 82.9%. In data set [3] (percentage remaining undegraded after 24 hours illumination), the “Photostability 24 hours” value is 9.3%. Also, the “Photostability Dark (24 h)” value in [3] (percentage remaining undegraded in the dark, 24 h) was greater than 99%.

As usually defined, the Ki is the equilibrium dissociation constant of an inhibitor or competing ligand from its target. The IC50 is the concentration that inhibits the measured activity by half.
